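Cells were grown in 96-well plates and exposed to each compound for 48 hours at five concentrations; endpoints were interpolated linearly between bracketing concentrations, or set to the highest concentration if not reached. TGI denotes the concentration required for complete inhibition of growth.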
How the values were obtained:
Experiment in all cases: NCI tumour cell line growth inhibition, 48 h
RPMI-8226 leukemia = tested on: RPMI-8226 leukemia
SN12C renal = tested on: SN12C renal
MOLT-4 leukemia = tested on: MOLT-4 leukemia
SF-295 CNS = tested on: SF-295 CNS
TK-10 renal = tested on: TK-10 renal
786-0 renal = tested on: 786-0 renal
T-47D breast = tested on: T-47D breast
CAKI-1 renal = tested on: CAKI-1 renal
HOP-62 NSCLC = tested on: HOP-62 NSCLC
HCT-116 colon = tested on: HCT-116 colon
HOP-92 NSCLC = tested on: HOP-92 NSCLC
NCI-H460 lung = tested on: NCI-H460 lung
MDA-MB-231 breast = tested on: MDA-MB-231 breast
HS 578T breast = tested on: HS 578T breast
OVCAR-3 ovarian = tested on: OVCAR-3 ovarian

Structure (SMILES)	TGI (RPMI-8226 leukemia) [µM]	TGI (SN12C renal) [µM]	TGI (MOLT-4 leukemia) [µM]	TGI (SF-295 CNS) [µM]	TGI (TK-10 renal) [µM]	TGI (786-0 renal) [µM]	TGI (T-47D breast) [µM]	TGI (CAKI-1 renal) [µM]	TGI (HOP-62 NSCLC) [µM]	TGI (HCT-116 colon) [µM]	TGI (HOP-92 NSCLC) [µM]	TGI (NCI-H460 lung) [µM]	TGI (MDA-MB-231 breast) [µM]	TGI (HS 578T breast) [µM]	TGI (OVCAR-3 ovarian) [µM]
CCOC(=O)c1sc2c(c1OC(=O)c1ccco1)c(=O)n(-c1ccccc1)c(=S)n2-c1ccccc1	78.5	84.4	49.3	> 100	> 100	> 100	> 100	82.8	> 100	> 100	71.3	45.5	> 100	> 100	76.9
CC(C)(CO)CNc1nc(N)nc(Cl)c1C=O	> 100	55.3	59	> 100	> 100	> 100	> 100	52.6	46.1	40.1	77.3	> 100	> 100	70.7	62.8
COc1ccc2c(c1)C1Oc3ccccc3CC1CO2 (stereo not given)	65.4	> 100	52.9	> 100	> 100	> 100	> 100	> 100	> 100	> 100	87	> 100	> 100	> 100	> 100
CC1=NN(c2ccccc2Cl)C2(C1)C(Cl)C(=O)N2c1nc2ccccc2s1 (stereo not given)	58.6	> 100	91.6	> 100	> 100	> 100	> 100	> 100	> 100	> 100	> 100	> 100	> 100	> 100	53.1
CCN1C(c2ccccc2)=CC(c2ccccc2)(C(Cl)(Cl)Cl)C=C1c1ccccc1	> 100	> 100	61.8	> 100	> 100	> 100	2.29	> 100	> 100	29.3	25.8	23.3	> 100	> 100	> 100
CCSc1c2cc(OC)ccc2nc2ccc(OC)cc12	22.2	50.9	> 34.5	60.4	> 43.7	> 61	> 69.7	45.4	53.9	> 47.8	> 100	60.4	44.6	> 100	> 61.2
CCc1n[nH]c(=O)n1N	> 100	> 100	> 100	> 100	> 100	> 100	> 100	> 100	> 100	> 100	> 100	> 100	> 100	> 100	> 100
O=C(N/N=C\c1ccc([N+](=O)[O-])cc1)Nc1ccc2ccccc2c1	> 100	> 100	> 100	> 100	91.3	32.7	> 100	> 100	51.2	63.3	54.4	36.2	63.8	70.6	> 100
COc1ccc(/C=N/n2c(Cc3ccccc3)n[nH]c2=O)c(OC)c1	> 100	> 100	> 100	> 61.4	84.1	> 69	> 100	> 100	> 59.8	> 55.1	> 75	> 92.5	> 62.7	37.5	> 100
O=C1C=CC2(C=C1)O[C@H](CCc1ccccc1)[C@@H](CCc1ccccc1)O2	> 100	> 100	> 100	> 100	> 100	> 100	> 100	> 100	> 100	> 100	94.3	> 100	> 100	> 100	> 100
CC(=O)O[C@H]1[C@@H](N2CCCCC2)C[C@H]2[C@@H]3CC=C4C[C@@H](N5CCCC5)CC[C@]4(C)[C@H]3CC[C@@]21C	92.9	> 100	> 100	> 100	> 100	> 100	> 100	> 100	> 100	> 100	> 100	> 100	> 100	> 100	> 100
NC(N)=NS(=O)(=O)c1ccc(NCc2cccc3c(=O)c4ccc(Cl)cc4oc23)cc1	> 25	> 14.2	> 20.1	> 14.9	> 14.5	> 12.9	> 23.7	> 15	> 18.9	> 22.4	17.8	7.3	> 15.6	13.9	> 18.3
COc1cc2c(/C=C3/C(=O)Nc4cc(C)c(O)cc43)c(Cl)[nH]c2cc1C	4.44	6.07	0.835	5.07	7.22	8.91	18.2	7.01	10.9	8.84	> 100	8.89	8.99	7.35	3.68
C[C@]12CC/C(=N\OCCN3CCCC3)C=C1CCC1C2CC[C@@]2(C)C1CC[C@]2(C)O (stereo not given in full)	14	21.3	12.6	12.3	37	14.8	64	24.1	50	18	32.3	16.3	34	43.7	24.1
CCc1cccc(CC)c1Nc1nc(-c2ccccc2-c2ccccc2)cs1	> 100	> 100	> 100	> 100	> 100	> 100	> 100	> 100	> 100	> 100	> 100	> 100	> 100	> 100	> 100
Cc1ccccc1-n1c(=O)nc2n(-c3ccc(C(C)(C)C)cc3)c3ccccc3cc-2c1=O	52.9	38.1	55.1	53.1	> 100	69.9	> 100	71.4	39.7	28.8	50.1	28.7	42.9	79.7	40.9
N#Cc1ccc(N=NN2CCCC2)cc1	> 100	> 100	> 100	> 100	> 100	> 100	> 100	> 100	> 100	> 100	> 100	> 100	> 100	> 100	> 100
CC(C)(C(=O)N(C(=O)N1CCN(c2ccccc2)CC1)S(=O)(=O)c1ccccc1)c1ccc(Cl)cc1	> 100	> 100	17.6	> 100	> 100	> 100	> 100	> 100	> 100	> 100	53.6	> 100	> 100	> 100	99.3
Cc1ccc2c(n1)C(=O)c1cc(C)c(C)cc1C2=O	> 100	> 100	> 100	> 100	> 100	> 100	> 100	> 100	> 100	> 100	> 100	> 100	> 100	> 100	67.3
CN(C)Cc1cc(C(=O)/C=C/c2ccc(Cl)cc2Cl)cc(CN(C)C)c1O	> 100	6.96	4.71	14	24.2	13.5	22.1	5.61	12.9	11.7	8.55	4.4	6.53	15.8	11.6
Cc1cc(NS(=O)(=O)c2ccc(NC(=O)c3ccc4nc5ccccc5c(Nc5ccc(S(N)(=O)=O)cc5)c4c3)cc2)no1	68	81.5	61.8	> 100	82.9	30.8	71.3	> 100	> 100	63.2	78.3	53.1	67.1	86.8	74.4
CCCCCCCCCCCCCCCCNc1nc(=O)n(C2CC(O)C(COP(=O)(O)OC3CC(n4cc(F)c(=O)[nH]c4=O)OC3CO)O2)cc1F (stereo not given)	25.5	> 100	17.9	18.9	> 100	> 100	> 100	> 100	5.4	> 100	> 59.5	22.6	> 91.5	> 100	> 100

Reference: PubChem BioAssay (NCI)
